These results are taken from patent US11939344B2, “Spirocyclic compounds” (ASTRAZENECA AB, priority 2021, dated 2024).

The test system of assay [1] is HCT116 KO-MTAP cells. The assay is described as follows: PRMT5 cell SDMA assay, MTAP KO cells. It is filed as cell-based. The following applies: Homo sapiens.
In assay [2] the test system is HCT116 WT cells. As to the kind of experiment: PRMT5 cell SDMA assay, MTAP WT cells. Particulars: Homo sapiens. The class given is cell-based.
Assay [3] relates to HCT116 KO-MTAP cells. The assay is described as follows: Cell proliferation assay (Alamar Blue), MTAP KO cells. The class given is cell-based. The following applies: Homo sapiens. On the procedure:
(§1) Cell Proliferation Assays:
(§2) A day 0 plate is created in parallel but not dosed, after plating 4 μl of Alamar Blue (Thermo #DAL1100) and incubate for 3 h at 37 C, 5% CO2.
(§3) The dosed cell plates were then incubated for 5 days at 37° C. before adding Alamar blue and being read in the Envision following same protocol as for first plate.

Assay [4] deals with HCT116 WT cells. As to the kind of experiment: Cell proliferation assay (Alamar Blue), MTAP WT cells. The class given is cell-based. The following applies: Homo sapiens, HCT-116, 120 h, 5 days. On the procedure:
as §1, §2, §3

The target of assay [5] is human heterooctameric PRMT5:MEP50 enzyme complex (Homo sapiens, UniProt O14744). As to the kind of experiment: biochemical.
human heterooctameric PRMT5:MEP50 enzyme complex, sequence (O14744 whole entry): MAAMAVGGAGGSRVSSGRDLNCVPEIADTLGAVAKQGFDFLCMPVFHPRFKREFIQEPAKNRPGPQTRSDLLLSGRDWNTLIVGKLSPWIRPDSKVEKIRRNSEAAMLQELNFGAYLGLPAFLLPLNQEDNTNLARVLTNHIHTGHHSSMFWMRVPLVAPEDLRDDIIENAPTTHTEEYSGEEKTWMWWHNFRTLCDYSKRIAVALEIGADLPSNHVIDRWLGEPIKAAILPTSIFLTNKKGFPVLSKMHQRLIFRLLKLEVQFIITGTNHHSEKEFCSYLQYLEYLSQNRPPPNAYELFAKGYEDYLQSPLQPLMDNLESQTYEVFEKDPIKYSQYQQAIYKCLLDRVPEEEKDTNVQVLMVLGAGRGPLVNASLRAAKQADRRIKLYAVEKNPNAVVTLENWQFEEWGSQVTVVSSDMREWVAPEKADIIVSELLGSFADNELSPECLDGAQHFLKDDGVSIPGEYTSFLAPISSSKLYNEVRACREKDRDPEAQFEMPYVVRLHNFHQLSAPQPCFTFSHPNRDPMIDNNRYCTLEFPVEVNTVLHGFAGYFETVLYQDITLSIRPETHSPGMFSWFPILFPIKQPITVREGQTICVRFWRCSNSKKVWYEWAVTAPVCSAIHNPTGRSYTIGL
human heterooctameric PRMT5:MEP50 enzyme complex, sequence (Q9BQA1 whole entry partner): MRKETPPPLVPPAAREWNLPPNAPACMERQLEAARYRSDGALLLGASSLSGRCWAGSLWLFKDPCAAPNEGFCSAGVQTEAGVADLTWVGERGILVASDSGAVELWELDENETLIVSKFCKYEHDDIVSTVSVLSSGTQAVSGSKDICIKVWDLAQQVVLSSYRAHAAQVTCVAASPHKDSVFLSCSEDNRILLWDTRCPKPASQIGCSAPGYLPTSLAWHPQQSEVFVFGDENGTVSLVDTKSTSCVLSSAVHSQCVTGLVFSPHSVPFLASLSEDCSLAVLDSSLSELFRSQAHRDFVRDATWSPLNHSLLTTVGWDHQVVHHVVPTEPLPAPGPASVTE
Procedure: MTase-GIlo™ PRMT5 Luminescence Assays (PRMT5 Enzyme Assays)
An Mtase-Glo™ methyltransferase Luminescence assay was employed to monitor the conversion of S-Adenosyl methionine (SAM) to S-Adenosyl Homocysteine (SAH) by recombinant PRMT5:MEP50 enzyme complex in the presence or absence of the 5′-Methylthioadenosine (MTA). […] The reaction buffer contained 20 mM Bicine (pH 7.60), 25 mM NaCl, 1 mM DTT and 0.1% (w/v) CHAPS.
All wells were backfilled with the appropriate volume of DMSO to achieve a final concentration of 1% v/v in a 3 μl final assay volume.
After 5 h incubation in room temperature, 1 μL of 0.5% (v/v) TFA was added to each well to quench the methylation reaction.
Data was analysed and the IC50 values were calculated using the Genedata Screener® software.
Setting [6] is: HCT-116, HCT116 MTAP KO, 48 hours, read-out: Cell SDMA IC50 (μM) (MTAP KO).
[7] abbreviates: HCT-116, HCT116 MTAP WT, 48 hours, read-out: Cell SDMA IC50 (μM) (MTAP WT).
Where [8] appears, read: HCT-116, 120 h, HCT116 MTAP KO, 5 days, read-out: Cell proliferation IC50 (μM) (MTAP KO).
The mark [9] stands for this setting: HCT-116, column 6, read-out: Cell proliferation IC50 in MTAP KO cells.

For `Nc1nc2cc(CN3C(=O)c4cc(F)ccc4[C@]34CCN(CCOC(F)(F)F)C4=O)[nH]c2cc1Cl` [Example 27, (S)-2-((5-Amino-6-chloro-1H-pyrrolo[3,2-b]pyridin-2-yl)methyl)-5-fluoro-1′-(2-(trifluoromethoxy)ethyl)spiro[isoindoline-1,3′-pyrrolidine]-2′,3-dione], the IC50 in the assay with HCT116 KO-MTAP cells [1] (setting [6]) was 0.0047 µM; with HCT116 WT cells [2] (setting [7]), 0.17 µM; in the assay with HCT116 KO-MTAP cells [3] (setting [8]), 0.36 µM; in the assay with HCT116 WT cells [4], over 30 µM.

In the case of `CN1CC[C@@]2(C1=O)c1ccc(F)cc1C(=O)N2Cc1cc2nc(N)c(F)cc2[nH]1` [Example 10, (S)-2-((5-Amino-6-fluoro-1H-pyrrolo[3,2-b]pyridin-2-yl)methyl)-5-fluoro-1′-methylspiro[isoindoline-1,3′-pyrrolidine]-2′,3-dione], the IC50 in the assay with HCT116 KO-MTAP cells [1] (setting [6]) was 0.023 µM; with HCT116 WT cells [2] (setting [7]) it was 1.7 µM; in the assay with HCT116 KO-MTAP cells [3] (setting [8]), 1.6 µM; with HCT116 WT cells [4], over 30 µM.

As to `CC1(CN2CC[C@@]3(C2=O)c2ccc(F)cc2C(=O)N3Cc2cc3nc(N)cc(C#N)c3[nH]2)CC1` [Example 26, (S)-5-Amino-2-((5-fluoro-1′-((1-methylcyclopropyl)methyl)-2′,3-dioxospiro[isoindoline-1,3′-pyrrolidin]-2-yl)methyl)-1H-pyrrolo[3,2-b]pyridine-7-carbonitrile], the IC50 in the assay with HCT116 KO-MTAP cells [1] (setting [6]) was found to be 0.0031 µM; with HCT116 WT cells [2] (setting [7]), 0.093 µM; with HCT116 KO-MTAP cells [3] (setting [8]), 0.29 µM; in the assay with HCT116 WT cells [4] it was 2.3 µM.

Consider `C#CCN1CC[C@@]2(C1=O)c1ccc(F)cc1C(=O)N2Cc1cc2nc(N)c(F)cc2[nH]1` [Example 3, (S)-2-((5-Amino-6-fluoro-1H-pyrrolo[3,2-b]pyridin-2-yl)methyl)-5-fluoro-1′-(prop-2-yn-1-yl)spiro[isoindoline-1,3′-pyrrolidine]-2′,3-dione], for which the IC50 in the assay with HCT116 KO-MTAP cells [1] (HCT-116, column 4, read-out: Cell SDMA IC50, MTAP knock out HCT116 cells) is 0.013 µM; in the assay on HCT116 KO-MTAP cells [1] (setting [6]), 0.013 µM; in the assay with HCT116 WT cells [2] (HCT-116, column 5, read-out: Cell SDMA IC50, HCT116 wild type cells), 0.56 µM; in the assay on HCT116 WT cells [2] (setting [7]) it was 0.56 µM; in the assay on HCT116 KO-MTAP cells [3] (setting [8]) it was 0.32 µM; in the assay on HCT116 KO-MTAP cells [3] (setting [9]), 0.32 µM. The figures for the IC50 (in the assay with HCT116 WT cells [4]; in assay [5]) were over 30 µM and 61 nM, respectively.

Regarding `Nc1nc2cc(CN3C(=O)c4cc(F)ccc4[C@]34CCN(Cc3ccc(F)cc3)C4=O)[nH]c2cc1F` [Example 1, (S)-2-((5-Amino-6-fluoro-1H-pyrrolo[3,2-b]pyridin-2-yl)methyl)-5-fluoro-1′-(4-fluorobenzyl)spiro[isoindoline-1,3′-pyrrolidine]-2′,3-dione], the IC50 turned out to be 0.0053 µM in the assay on HCT116 KO-MTAP cells [1] (HCT-116, 48 h, read-out: Cell SDMA IC50 (μM) (MTAP KO)); 0.0053 µM with HCT116 KO-MTAP cells [1] (HCT-116, read-out: Cell SDMA IC50, MTAP knock out HCT116 cells); 0.29 µM in the assay with HCT116 WT cells [2] (HCT-116, 48 h, read-out: Cell SDMA IC50 (μM) (MTAP WT)); 0.29 µM in the assay with HCT116 WT cells [2] (HCT-116, read-out: Cell SDMA IC50, HCT116 wild type cells); 0.16 µM in the assay with HCT116 KO-MTAP cells [3] (setting [8]); 0.16 µM in the assay with HCT116 KO-MTAP cells [3] (setting [9]). The compound also yielded an IC50 in the assay with HCT116 WT cells [4] of over 30 µM.

On to `Nc1nc2cc(CN3C(=O)c4cc(F)ccc4[C@]34CCN(CC(F)F)C4=O)[nH]c2cc1F` [Example 8, (S)-2-((5-Amino-6-fluoro-1H-pyrrolo[3,2-b]pyridin-2-yl)methyl)-1′-(2,2-difluoroethyl)-5-fluorospiro[isoindoline-1,3′-pyrrolidine]-2′,3-dione], for which the IC50 was 0.025 µM with HCT116 KO-MTAP cells [1] (setting [6]), over 1.5 µM in the assay on HCT116 WT cells [2] (setting [7]), 1.9 µM in the assay on HCT116 KO-MTAP cells [3] (setting [8]) and over 30 µM with HCT116 WT cells [4].

In the case of `Nc1nc2cc(CN3C(=O)c4ccncc4[C@]34CCN(Cc3ccc(F)cc3)C4=O)[nH]c2cc1F` (single isomer, unassigned) [Example 25], the IC50 with HCT116 KO-MTAP cells [1] (setting [6]) turned out to be 0.014 µM; with HCT116 WT cells [2] (setting [7]), 0.44 µM.

On to `Nc1nc2cc(CN3C(=O)c4cc(F)ccc4[C@]34CCN(Cc3ncccc3F)C4=O)[nH]c2cc1F` [Example 12, (S)-2-((5-Amino-6-fluoro-1H-pyrrolo[3,2-b]pyridin-2-yl)methyl)-5-fluoro-1′-((3-fluoropyridin-2-yl)methyl)spiro[isoindoline-1,3′-pyrrolidine]-2′,3-dione], for which the IC50 with HCT116 KO-MTAP cells [1] (setting [6]) worked out at 0.0088 µM; in the assay on HCT116 WT cells [2] (setting [7]) it was 0.43 µM.

`Cc1cc(N)nc2[nH]c(CN3C(=O)c4cc(F)ccc4[C@]34CCN(Cc3cc(F)c(F)cc3F)C4=O)cc12` [Example 28, (S)-2-((6-Amino-4-methyl-1H-pyrrolo[2,3-b]pyridin-2-yl)methyl)-5-fluoro-1′-(2,4,5-trifluorobenzyl)spiro[isoindoline-1,3′-pyrrolidine]-2′,3-dione]: the IC50 in the assay with HCT116 KO-MTAP cells [1] (setting [6]) was found to be 0.0028 µM; in the assay with HCT116 WT cells [2] (setting [7]), 0.071 µM; with HCT116 KO-MTAP cells [3] (setting [8]), 0.13 µM; in the assay with HCT116 WT cells [4], 1.4 µM.

For the compound `Nc1nc2cc(CN3C(=O)c4cc(F)ccc4[C@]34CCN(CCOc3ccc(F)cc3)C4=O)[nH]c2cc1F` [Example 17, (S)-2-((5-Amino-6-fluoro-1H-pyrrolo[3,2-b]pyridin-2-yl)methyl)-5-fluoro-1′-(2-(4-fluorophenoxy)ethyl)spiro[isoindoline-1,3′-pyrrolidine]-2′,3-dione], the IC50 in the assay with HCT116 KO-MTAP cells [1] (setting [6]) is 0.0068 µM; with HCT116 WT cells [2] (setting [7]), 0.42 µM.
